{"source": "patent US20060252740A1", "about": "(priority 2005, published 2006)", "key": {"clinical": {"assay": "clinical", "details": "human, plasma, intravenous", "protocol": "PK assessments included the following tests. […] The total number of PK samples collected was approximately 115 mL of whole blood (7-8 tablespoons). If a patient experienced a potentially drug-related SAE, additional PK samples were collected. Blood was drawn from the contralateral arm to the infusion site using an indwelling catheter to avoid multiple needle sticks. […] The blood tube was inverted several times and the tube placed in wet ice immediately pending separation of the plasma. If a catheter was used for blood collection, the fluid in the catheter was completely withdrawn prior to each sample collection and discarded. Plasma samples were kept on wet ice during collection and centrifugation. Plasma samples were split into two cryovials prior to freezing at −70° C."}, "plasma protein": {"system": "plasma protein", "assay": "Plasma protein binding, in vitro assays using human blood", "type": "in vitro ADME"}, "cytochrome P450 enzymes": {"system": "cytochrome P450 enzymes", "assay": "In vitro metabolism studies", "type": "in vitro ADME"}, "[1]": {"assay": "Stability of diluted drug product", "type": "physicochemical", "details": "drug product at a dilution of 1:7, room temperature"}, "[2]": {"system": "SKBr3 breast cancer cells", "details": "cited from earlier work"}, "breast cancer cells": {"system": "breast cancer cells", "details": "cited from earlier work"}, "MEXF 276L melanoma cells": {"system": "MEXF 276L melanoma cells", "details": "cited from earlier work"}, "[3]": {"system": "colon adenocarcinoma cells", "details": "cited from earlier work"}, "leukemia cells": {"system": "leukemia cells", "details": "cited from earlier work"}, "[4]": {"system": "lung cancer cells with wild-type Rb", "details": "cited from earlier work"}, "NSCLC cells": {"system": "NSCLC cells", "details": "cited from earlier work"}, "[5]": {"system": "diffuse GFP positive MM lesions", "details": "SCID/NOD mice; cited from earlier work"}, "[6]": {"system": "adult patients with solid tumors", "details": "cited from earlier work"}, "[7]": {"system": "patients with advanced solid tumors", "details": "cited from earlier work"}, "[8]": {"system": "patients with advanced solid tumors", "details": "cited from earlier work", "remark": "listed apart in the source"}, "[9]": {"system": "patients with solid tumors and lymphomas", "details": "cited from earlier work"}}, "data": [{"smiles": "C=CCNC1=C2C[C@@H](C)C[C@H](OC)[C@H](O)[C@@H](C)/C=C(\\C)[C@H](OC(N)=O)[C@@H](OC)/C=C\\C=C(/C)C(=O)NC(=CC1=O)C2=O", "note": "[17-AAG, 17-Allylamino-17-demethoxygeldanamycin]", "values": [{"measurement": "AUC", "setting": "clinical; 100 mg/m2, AUCextra, Cohorts 1 & 2, 17-AAG 100 mg/m^2, Mean", "result": 225, "unit": "ng·h/mL"}, {"measurement": "AUC", "setting": "clinical; 100 mg/m2, AUCextra, Cohorts 1 & 2, 17-AAG 100 mg/m^2, Median", "result": 166, "unit": "ng·h/mL"}, {"measurement": "AUC(0-t)", "setting": "clinical; 100 mg/m2, AUClast, Cohorts 1 & 2, 17-AAG 100 mg/m^2, Mean", "result": 3580, "unit": "ng·h/mL"}, {"measurement": "AUC(0-t)", "setting": "clinical; 100 mg/m2, AUClast, Cohorts 1 & 2, 17-AAG 100 mg/m^2, Median", "result": 3350, "unit": "ng·h/mL"}, {"measurement": "Clearance", "setting": "clinical; 100 mg/m2, Clearance, Cohorts 1 & 2, 17-AAG 100 mg/m^2, Mean", "result": 879, "unit": "mL/min"}, {"measurement": "Cmax", "setting": "clinical; 100 mg/m2, Cmax, Cohorts 1 & 2, 17-AAG 100 mg/m^2, Mean", "result": 1790, "unit": "ng/mL"}, {"measurement": "Cmax", "setting": "clinical; 100 mg/m2, Cmax, Cohorts 1 & 2, 17-AAG 100 mg/m^2, Median", "result": 1740, "unit": "ng/mL"}, {"measurement": "MRT", "setting": "clinical; 100 mg/m2, MRT, Cohorts 1 & 2, 17-AAG 100 mg/m^2, Mean", "result": 3.32, "unit": "h"}, {"measurement": "MRT", "setting": "clinical; 100 mg/m2, MRT, Cohorts 1 & 2, 17-AAG 100 mg/m^2, Median", "result": 2.89, "unit": "h"}, {"measurement": "Tmax", "setting": "clinical; 100 mg/m2, Tmax, Cohorts 1 & 2, 17-AAG 100 mg/m^2, Mean", "result": 1, "unit": "h"}, {"measurement": "Tmax", "setting": "clinical; 100 mg/m2, Tmax, Cohorts 1 & 2, 17-AAG 100 mg/m^2, Median", "result": 1, "unit": "h"}, {"measurement": "Vd", "setting": "clinical; 100 mg/m2, Vss, Cohorts 1 & 2, 17-AAG 100 mg/m^2, Mean", "result": 174, "unit": "L"}, {"measurement": "Vd", "setting": "clinical; 100 mg/m2, Vz, Cohorts 1 & 2, 17-AAG 100 mg/m^2, Mean", "result": 193, "unit": "L"}, {"measurement": "Vd", "setting": "clinical; 100 mg/m2, Vz, Cohorts 1 & 2, 17-AAG 100 mg/m^2, Median", "result": 188, "unit": "L"}, {"measurement": "half-life", "setting": "clinical; 100 mg/m2, t1/2, Cohorts 1 & 2, 17-AAG 100 mg/m^2, Mean", "result": 2.49, "unit": "h"}, {"measurement": "half-life", "setting": "clinical; 100 mg/m2, t1/2, Cohorts 1 & 2, 17-AAG 100 mg/m^2, Median", "result": 2.29, "unit": "h"}, {"measurement": "AUC", "setting": "clinical; 150 mg/m2, AUCextra, Cohorts 3 & 4, 17-AAG 150 mg/m^2, Mean", "result": 256, "unit": "ng·h/mL"}, {"measurement": "AUC", "setting": "clinical; 150 mg/m2, AUCextra, Cohorts 3 & 4, 17-AAG 150 mg/m^2, Median", "result": 199, "unit": "ng·h/mL"}, {"measurement": "AUC(0-t)", "setting": "clinical; 150 mg/m2, AUClast, Cohorts 3 & 4, 17-AAG 150 mg/m^2, Mean", "result": 5770, "unit": "ng·h/mL"}, {"measurement": "AUC(0-t)", "setting": "clinical; 150 mg/m2, AUClast, Cohorts 3 & 4, 17-AAG 150 mg/m^2, Median", "result": 4870, "unit": "ng·h/mL"}, {"measurement": "Clearance", "setting": "clinical; 150 mg/m2, Clearance, Cohorts 3 & 4, 17-AAG 150 mg/m^2, Mean", "result": 850, "unit": "mL/min"}, {"measurement": "Clearance", "setting": "clinical; 150 mg/m2, Clearance, Cohorts 3 & 4, 17-AAG 150 mg/m^2, Median", "result": 843, "unit": "mL/min"}, {"measurement": "Cmax", "setting": "clinical; 150 mg/m2, Cmax, Cohorts 3 & 4, 17-AAG 150 mg/m^2, Mean", "result": 3470, "unit": "ng/mL"}, {"measurement": "Cmax", "setting": "clinical; 150 mg/m2, Cmax, Cohorts 3 & 4, 17-AAG 150 mg/m^2, Median", "result": 2740, "unit": "ng/mL"}, {"measurement": "MRT", "setting": "clinical; 150 mg/m2, MRT, Cohorts 3 & 4, 17-AAG 150 mg/m^2, Mean", "result": 2.89, "unit": "h"}, {"measurement": "MRT", "setting": "clinical; 150 mg/m2, MRT, Cohorts 3 & 4, 17-AAG 150 mg/m^2, Median", "result": 2.9, "unit": "h"}, {"measurement": "Tmax", "setting": "clinical; 150 mg/m2, Tmax, Cohorts 3 & 4, 17-AAG 150 mg/m^2, Mean", "result": 1, "unit": "h"}, {"measurement": "Tmax", "setting": "clinical; 150 mg/m2, Tmax, Cohorts 3 & 4, 17-AAG 150 mg/m^2, Median", "result": 0.97, "unit": "h"}, {"measurement": "Vd", "setting": "clinical; 150 mg/m2, Vss, Cohorts 3 & 4, 17-AAG 150 mg/m^2, Median", "result": 151, "unit": "L"}, {"measurement": "Vd", "setting": "clinical; 150 mg/m2, Vz, Cohorts 3 & 4, 17-AAG 150 mg/m^2, Mean", "result": 166, "unit": "L"}, {"measurement": "half-life", "setting": "clinical; 150 mg/m2, t1/2, Cohorts 3 & 4, 17-AAG 150 mg/m^2, Mean", "result": 2.4, "unit": "h"}, {"measurement": "half-life", "setting": "clinical; Terminal elimination half-life, cohorts 1-4 combined", "result": "2.43 ± 0.9", "unit": "h"}, {"measurement": "Clearance", "setting": "clinical; Total systemic clearance, cohorts 1-4 combined", "result": 860, "unit": "mL/min"}, {"measurement": "Vd", "setting": "clinical; distributive volume VSS, cohorts 1-4 combined", "result": "153 ± 62.3", "unit": "L"}, {"measurement": "protein bound in plasma", "setting": "plasma protein", "result": "approximately 95%"}, {"measurement": "enzymes involved in metabolism", "setting": "cytochrome P450 enzymes", "result": "implicate the involvement of cytochrome P450 enzymes"}, {"measurement": "stability after dilution", "setting": "[1]", "result": "up to 10 hours"}, {"measurement": "effect of exposure on client proteins", "setting": "[2]", "result": "depletion of erbB2 and destabilization of Raf-1 and mutant p53"}, {"measurement": "effect of exposure on client proteins", "setting": "breast cancer cells", "result": "depletion of steroid receptors"}, {"measurement": "effect of exposure on client proteins", "setting": "MEXF 276L melanoma cells", "result": "depletion of Hsp90 and down-regulation of Raf-1 and erbB2"}, {"measurement": "effect of exposure on client proteins", "setting": "[3]", "result": "depletion of Raf-1, c-Akt, and Erk1/2"}, {"measurement": "effect of exposure on client proteins", "setting": "leukemia cells", "result": "down-regulation of intracellular Bcr-Abl and c-Raf proteins and reduction of Akt kinase activity"}, {"measurement": "effect of exposure on client proteins", "setting": "[4]", "result": "degradation of cdk4, cdk6, and cyclin E"}, {"measurement": "effect of exposure on client proteins", "setting": "NSCLC cells", "result": "depletion of erbB1 (EGFR) and erbB2 (p185) levels"}, {"measurement": "survival analysis", "setting": "[5]", "result": "significantly prolonged median overall survival"}, {"measurement": "maximum tolerated dose (MTD) and recommended Phase 2 dose", "setting": "[6]; daily for 5 days every 3 weeks", "result": 40, "unit": "mg/m^2"}, {"measurement": "dose limiting toxicity", "setting": "[6]; daily x5 schedule", "result": "reversible hepatotoxicity"}, {"measurement": "objective tumor responses", "setting": "[6]; doses up to 110 mg/m^2", "result": "No objective tumor responses"}, {"measurement": "VZ", "setting": "[6]; in vivo", "result": 93, "unit": "L/m^2"}, {"measurement": "Clearance", "setting": "[6]; patients treated at 56 mg/m^2", "result": 19.9, "unit": "L/h/m^2"}, {"measurement": "average AUC", "setting": "[6]; patients treated at 56 mg/m^2", "result": "6,708 nM*h"}, {"measurement": "dose limiting toxicities", "setting": "[7]; at the 80 mg/m^2 dose, daily x5", "result": "hepatitis, abdominal pain, nausea, dyspnea"}, {"measurement": "Cmax", "setting": "[7]; read-out: plasma Cmax, 80 mg/m^2 dose level", "result": 2700, "unit": "nM"}, {"measurement": "toxicities observed", "setting": "[8]; dose of 395 mg/m^2", "result": "nausea and vomiting secondary to pancreatitis and grade 3 fatigue"}, {"measurement": "17-AAG metabolized to 17-AG (metabolic clearance)", "setting": "[8]; population PK analysis", "result": 46.4, "unit": "%"}, {"measurement": "Vd (volume of distribution), central compartment", "setting": "[8]; population PK analysis", "result": 24.2, "unit": "L"}, {"measurement": "Vd (volume of distribution), peripheral compartment", "setting": "[8]; population PK analysis", "result": 89.6, "unit": "L"}, {"measurement": "objective tumor responses", "setting": "[8]; to date", "result": "No objective tumor responses"}, {"measurement": "levels of Hsp90 client proteins", "setting": "[9]; during therapy", "result": "unchanged during therapy"}, {"measurement": "objective tumor responses", "setting": "[9]; to date", "result": "No objective tumor responses"}, {"measurement": "MTD", "setting": "[9]; weekly 17-AAG, 3 weeks out of a 4 week cycle", "result": 308, "unit": "mg/m^2"}, {"measurement": "dose reached without significant toxicity", "setting": "[9]; weekly dosing", "result": 112, "unit": "mg/m^2"}]}]}
